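Briefly, cells in 96-well plates were exposed to five compound concentrations for 48 h, and endpoints were estimated by linear interpolation. At the GI50, growth is halved. TGI: concentration producing complete growth inhibition.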
Experiments:
Assay in all cases: NCI tumour cell line growth inhibition, 48 h
A549 NSCLC = test system: A549 NSCLC
OVCAR-4 ovarian = test system: OVCAR-4 ovarian
CAKI-1 renal = test system: CAKI-1 renal
IGROV1 ovarian = test system: IGROV1 ovarian
SK-MEL-28 melanoma = test system: SK-MEL-28 melanoma
SNB-75 CNS = test system: SNB-75 CNS
HL-60(TB) leukemia = test system: HL-60(TB) leukemia
KM12 colon = test system: KM12 colon
NCI-H226 lung = test system: NCI-H226 lung
UACC-62 melanoma = test system: UACC-62 melanoma
NCI-H460 lung = test system: NCI-H460 lung
UACC-257 melanoma = test system: UACC-257 melanoma
SR leukemia = test system: SR leukemia
RPMI-8226 leukemia = test system: RPMI-8226 leukemia
M14 melanoma = test system: M14 melanoma
OVCAR-3 ovarian = test system: OVCAR-3 ovarian
K-562 leukemia = test system: K-562 leukemia
MALME-3M melanoma = test system: MALME-3M melanoma
HOP-62 NSCLC = test system: HOP-62 NSCLC
UO-31 renal = test system: UO-31 renal
SF-268 CNS = test system: SF-268 CNS
A498 renal = test system: A498 renal
HCT-116 colon = test system: HCT-116 colon
SF-295 CNS = test system: SF-295 CNS
LOX IMVI melanoma = test system: LOX IMVI melanoma
OVCAR-8 ovarian = test system: OVCAR-8 ovarian
ACHN renal = test system: ACHN renal
SNB-19 CNS = test system: SNB-19 CNS

Structure (SMILES): O=C(/C=C/c1cccc(O)c1)c1cccc(-n2cc(-c3ccc(Cl)cc3)[nH]c2=O)c1
- GI50 (A549 NSCLC): 3.55 µM
- TGI (A549 NSCLC): > 100 µM
- GI50 (OVCAR-4 ovarian): 2.21 µM
- TGI (OVCAR-4 ovarian): 8.96 µM
- GI50 (CAKI-1 renal): 1.72 µM
- TGI (CAKI-1 renal): 4.07 µM
- GI50 (IGROV1 ovarian): 1.92 µM
- TGI (IGROV1 ovarian): 6.38 µM
- GI50 (SK-MEL-28 melanoma): 3.64 µM
- TGI (SK-MEL-28 melanoma): 15.9 µM
- GI50 (SNB-75 CNS): 1.46 µM
- TGI (SNB-75 CNS): 3.04 µM
- GI50 (HL-60(TB) leukemia): 1.09 µM
- TGI (HL-60(TB) leukemia): 3.51 µM
- GI50 (KM12 colon): 1.34 µM
- TGI (KM12 colon): 3 µM
- GI50 (NCI-H226 lung): 2.31 µM
- TGI (NCI-H226 lung): 5.5 µM
- GI50 (UACC-62 melanoma): 1.85 µM
- TGI (UACC-62 melanoma): 4.27 µM
- GI50 (NCI-H460 lung): 2.41 µM
- TGI (NCI-H460 lung): 5.99 µM
- GI50 (UACC-257 melanoma): 4.07 µM
- TGI (UACC-257 melanoma): 26.3 µM
- GI50 (SR leukemia): 0.217 µM
- TGI (SR leukemia): 1.07 µM
- GI50 (RPMI-8226 leukemia): 1.55 µM
- TGI (RPMI-8226 leukemia): 4.64 µM
- GI50 (M14 melanoma): 2.01 µM
- TGI (M14 melanoma): 4.44 µM
- GI50 (OVCAR-3 ovarian): 1.56 µM
- TGI (OVCAR-3 ovarian): 3.44 µM
- GI50 (K-562 leukemia): 0.405 µM
- TGI (K-562 leukemia): 3.63 µM
- GI50 (MALME-3M melanoma): 1.83 µM
- TGI (MALME-3M melanoma): 6.16 µM
- GI50 (HOP-62 NSCLC): 2.36 µM
- TGI (HOP-62 NSCLC): 4.88 µM
- GI50 (UO-31 renal): 0.558 µM
- TGI (UO-31 renal): 3.46 µM
- GI50 (SF-268 CNS): 1.78 µM
- TGI (SF-268 CNS): 3.94 µM
- GI50 (A498 renal): 3.71 µM
- TGI (A498 renal): 16.1 µM
- GI50 (HCT-116 colon): 1.23 µM
- TGI (HCT-116 colon): 2.52 µM
- GI50 (SF-295 CNS): 1.79 µM
- TGI (SF-295 CNS): 3.88 µM
- GI50 (LOX IMVI melanoma): 1.57 µM
- TGI (LOX IMVI melanoma): 3.11 µM
- GI50 (OVCAR-8 ovarian): 0.998 µM
- TGI (OVCAR-8 ovarian): > 100 µM
- GI50 (ACHN renal): 1.84 µM
- TGI (ACHN renal): 4.13 µM
- GI50 (SNB-19 CNS): 1.92 µM
